Legend:
[1] = target: T1, Tissue alpha-L-fucosidase (Homo sapiens, UniProt P04066); test: Inhibition of human liver alpha-L-fucosidase
T1 sequence (P04066 whole entry): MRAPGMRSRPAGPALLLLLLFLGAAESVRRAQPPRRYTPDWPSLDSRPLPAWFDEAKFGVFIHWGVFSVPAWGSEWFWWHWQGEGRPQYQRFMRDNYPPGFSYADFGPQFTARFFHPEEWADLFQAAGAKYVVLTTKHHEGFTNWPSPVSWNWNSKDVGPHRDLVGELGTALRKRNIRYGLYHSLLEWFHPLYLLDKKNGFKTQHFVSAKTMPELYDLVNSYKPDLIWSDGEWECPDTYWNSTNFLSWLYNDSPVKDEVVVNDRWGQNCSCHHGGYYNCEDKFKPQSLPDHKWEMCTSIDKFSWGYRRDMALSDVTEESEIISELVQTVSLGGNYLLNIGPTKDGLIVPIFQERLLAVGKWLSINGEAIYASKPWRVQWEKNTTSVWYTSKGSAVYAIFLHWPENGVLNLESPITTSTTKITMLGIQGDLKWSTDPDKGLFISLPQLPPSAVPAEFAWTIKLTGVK

Beta-xylosidase = target: T2, Beta-xylosidase (Thermoanaerobacterium saccharolyticum, UniProt P36906); test: Inhibition of Thermoanaerobacterium saccharolyticum beta-xylosidase
T2 sequence (P36906 whole entry): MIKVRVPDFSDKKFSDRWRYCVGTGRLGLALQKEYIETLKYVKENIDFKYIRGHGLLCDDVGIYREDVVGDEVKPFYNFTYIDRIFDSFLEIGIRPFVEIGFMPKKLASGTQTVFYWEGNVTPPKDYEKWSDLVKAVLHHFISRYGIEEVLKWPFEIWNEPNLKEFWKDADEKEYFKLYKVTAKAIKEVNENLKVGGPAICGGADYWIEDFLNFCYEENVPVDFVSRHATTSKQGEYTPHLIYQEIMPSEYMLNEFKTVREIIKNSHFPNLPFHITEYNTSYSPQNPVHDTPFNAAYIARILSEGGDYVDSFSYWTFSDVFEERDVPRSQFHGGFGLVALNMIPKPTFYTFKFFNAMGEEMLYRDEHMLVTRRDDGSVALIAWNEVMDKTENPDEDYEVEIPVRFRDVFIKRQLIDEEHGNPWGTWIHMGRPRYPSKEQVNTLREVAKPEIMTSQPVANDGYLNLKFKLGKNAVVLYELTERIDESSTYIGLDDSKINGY

Row | Compound | Ki [1] | Ki (Beta-xylosidase)
1 | C[C@H]1[C@@H](O)[C@@H](O)[C@H](O)CN1CCCCCCNS(=O)(=O)c1cccc2c(N(C)C)cccc12 | 0.5 µM | –
2 | O[C@H]1[C@H](O)CNC[C@@H]1O [DIDEOXYIMINOXYLITOL] | – | 206 µM
3 | CN(C)c1cccc2c(S(=O)(=O)NCCCCCCN3C[C@@H](O)[C@H](O)[C@@H](O)C3)cccc12 | – | 7.6 µM

— ChEMBL document CHEMBL1146112, “Fluorescent glycosidase inhibiting 1,5-dideoxy-1,5-iminoalditols” (Bioorg Med Chem Lett, 2006)
